Measured values as given in patent publication US20260183242A1, “FORMULATIONS COMPRISING A COMBINATION OF ACID-NEUTRALIZING POLYMERIC AND NON-POLYMERIC SUBSTANCES FOR ORAL ADMINISTRATION OF ACTIVE AGENTS” (Entera Bio Ltd., priority 2023, published 2026).
Where two headings read alike, the source gives them in different places. One block for each compound: values may come before it.

What was measured:
[1] = cited from earlier work
[2] = pH upon addition of test substance to 0.1 M HCl solution (pH 1.2), pH meter; format: physicochemical
Procedure: The solution pH was determined using an MP-103 pH-meter (MRC, Israel) equipped with ELC-10-00 electrode (MRC, Israel) or with a thin electrode HI1083 (HANNA instruments Inc.), shortly after dissolution and up to 26 hours later in order to ensure that the pH remained stable. The highest pH value obtained during the experimental time period was recorded in order to compare the acid-neutralizing capacity of each substance.
SNAC and the basic polymers sodium alginate, sodium carboxymethylcellulose in non-crosslinked (Na-CMC) and crosslinked (croscarmellose sodium, CCS) forms, and sodium starch glycolate (SSG) were dissolved in various volumes of 0.1 M HCl solution (pH 1.2) at concentrations of 1, 2, 4, 10, 20, 50, 100 and 150 mg/ml, and the solution pH was determined using an MP-103 pH-meter (MRC, Israel) equipped with ELC-10-00 electrode (MRC, Israel), as described in the Materials and Methods section hereinabove.
In order to obtain a beneficial rise in pH with a reduced loss of the active form of the absorption enhancer, the effect of various concentrations of different polymers containing carboxylate groups (sodium alginate, sodium starch glycolate, sodium carboxymethylcellulose, and croscarmellose sodium) on pH upon addition to a 0.1 M HCl solution (pH 1.2) was also evaluated. FIG. 3A presents pH values determined using an MP-103 pH-meter (MRC, Israel) equipped with ELC-10-00 electrode (MRC, Israel) and FIG. 3B presents pH values determined using an MP-103 pH-meter (MRC, Israel) equipped with a thin electrode HI1083 (HANNA instruments Inc.).

[3] = In vivo pig model: absorption of active agent from SNAC/SSG tablets with or without small proton-accepting agent; design: species or system mini-pigs; details: both sexes, minipig; for Cmax: mini-pigs, preliminary data
Procedure: The effect of combination of SNAC, sodium starch glycolate (SSG) as an exemplary alkaline polymer and a small molecule proton-accepting agent (Sodium carbonate, arginine and/or Sodium Decanoate (C10)) on absorption of a therapeutically active agent was assessed in an in vivo pig model, which allows testing of orally administered unit dosage forms with conventional dimensions that are applicable also in humans. The following proteinaceous therapeutically active agents were tested: lixisenatide, octreotide, desmopressin, salmon calcitonin, PTH (1-34), leuprolide.
All formulation constituents were in a dry powder form and mixed geometrically using mortar and pestle. Thereafter, round flat tablets were prepared from the mixes using a punch and dye and dental manual press.
The obtained tablets were administered at monitored conditions with the aid of endoscope into the stomachs of 2 male and 2 female mini-pigs (about 45 kg) for each tested group on different visits. Pigs were deprived of food the night before the experiments and during the experiment and deprived of water an hour before the experiment and during the experiment.
Blood samples were taken from the jugular vein through an indwelling cannula at predetermined time points during the first hour post-dose (which reflects the absorption phase). Plasma was separated and the concentration of the tested model molecules in plasma was quantified using a suitable technique.
hPTH (1-34) was quantified using a commercially available Elisa kit for the determination of hPTH (1-34) in plasma or cell culture media (Quidel Corp. Athens, OH, USA; Cat #60-3900).
Octreotide was quantified using a commercially available Elisa kit for the determination of octreotide in plasma or cell culture media (BMA Biomedicals, Augst, Switzerland. Cat #S-1341).
Formulations containing the same therapeutically active agents were also formulated with 11% SSG and typically included about 0.3-0.5% by weight of the active agent, 85-90% by weight SNAC, and magnesium stearate as a lubricant (about 1% by weight), and the total weight of the tablet was 90-95 mg.

[4] = drug alone, without absorption enhancer; cited from earlier work
pepsin = test: Proteolysis of hPTH (1-34) by pepsin at various pH values; format: in vitro ADME; details: 150 μg/ml pepsin, 37° C., 3 minutes; media pH 2-7
Procedure: The effect of pH on peptide proteolysis by pepsin was determined by incubating 13.5 μg/ml human parathyroid hormone (1-34) (hPTH (1-34)) with 150 μg/ml pepsin, at various pH values, and determining the percentage of hPTH (1-34) which remained. The amount of hPTH (1-34) remaining upon addition to 150 μg/ml pepsin at 37° C. was determined in media with different pH values, followed by immediate (10 second) vortex and centrifugation for 3 minutes at 4° C., 4000 RCF. The following media were used: simulated gastric fluid (pH 2), prepared from 0.01 M HCl and NaCl; phthalate buffer (pH 4 or 5); and phosphate buffer (pH 6 or 7).

Compound: salmon calcitonin
T1/2 (IV half-life) ([1]; in vivo, iv): 1 to 1.5 h

pH 5 minutes after dissolution ([2]; 10 mg/ml SNAC added to HCl solution (pH 1.2)): about 1.5
pH 5 minutes after dissolution ([2]; 20 mg/ml SNAC added to HCl solution (pH 1.2)): 6.5
pH 5 minutes after dissolution ([2]; 100 mg/ml SNAC added to HCl solution (pH 1.2)): about 7.5
Compound: O=C(O)CCCCCCCNC(=O)c1ccccc1O [SNAC, sodium 8-N-(2-hydroxybenzoyl)aminocaprylate]

Compound: C[C@@H](O)[C@@H]1NC(=O)[C@H](CCCCN)NC(=O)[C@@H](Cc2c[nH]c3ccccc23)NC(=O)[C@H](Cc2ccccc2)NC(=O)[C@@H](NC(=O)[C@H](N)Cc2ccccc2)CSSC[C@@H](C(=O)N[C@H](CO)[C@@H](C)O)NC1=O [octreotide]
Cmax ([3]; octreotide 0.3-0.5%, SNAC 85-90%, about 11% SSG, magnesium stearate, no PAA, read-out: mean Cmax): 2.09 ng/mL
Cmax ([3]; octreotide, SSG 11% by weight formulation further including sodium decanoate (C10), read-out: Cmax): 2.94 ng/mL
T1/2 (IV half-life) ([1]; intravenous): about 1.5 hours

Compound: CC[C@H](C)[C@H](NC(=O)[C@H](Cc1ccccc1)NC(=O)[C@H](CC(=O)O)NC(=O)[C@H](CCCNC(=N)N)NC(=O)[C@H](C)NC(=O)[C@H](C)NC(=O)[C@H](CC(C)C)NC(=O)[C@H](CC(N)=O)NC(=O)[C@H](CC(=O)O)NC(=O)[C@H](CC(C)C)NC(=O)[C@@H](NC(=O)[C@@H](NC(=O)[C@H](CC(N)=O)NC(=O)[C@H](CCSC)NC(=O)[C@H](CCC(=O)O)NC(=O)[C@H](CC(=O)O)NC(=O)[C@H](CO)NC(=O)[C@H](Cc1ccccc1)NC(=O)[C@H](CO)NC(=O)CNC(=O)[C@H](CC(=O)O)NC(=O)CNC(=O)[C@@H](N)Cc1c[nH]cn1)[C@@H](C)O)[C@@H](C)CC)C(=O)N[C@@H](CC(N)=O)C(=O)N[C@@H](Cc1c[nH]c2ccccc12)C(=O)N[C@@H](CC(C)C)C(=O)N[C@H](C(=O)N[C@@H](CCC(N)=O)C(=O)N[C@H](C(=O)N[C@@H](CCCCN)C(=O)N[C@H](C(=O)N[C@H](C(=O)N[C@@H](CC(=O)O)C(=O)O)[C@@H](C)O)[C@@H](C)CC)[C@@H](C)O)[C@@H](C)CC [teduglutide]
oral (PO) bioavailability [4]: negligible

Compound: lixisenatide
T1/2 (IV half-life) ([1]; in vivo, iv): about 3 hours

Compound: CCNC(=O)[C@@H]1CCCN1C(=O)[C@H](CCCNC(=N)N)NC(=O)[C@H](CC(C)C)NC(=O)[C@@H](CC(C)C)NC(=O)[C@H](Cc1ccc(O)cc1)NC(=O)[C@H](CO)NC(=O)[C@H](Cc1c[nH]c2ccccc12)NC(=O)[C@H](Cc1c[nH]cn1)NC(=O)[C@@H]1CCC(=O)N1 [Leuprolide, leuprolide]
T1/2 (IV half-life) ([1]; in vivo, iv): about 3 hours

pH at which proteolysis by pepsin was inhibited (pepsin): ≥ 6
AUC(0-t) ([3]; AUClast): 0.164 ng·h/mL
AUC(0-t) ([3]; mean AUClast): 0.0978 ng·h/mL
Compound: CC[C@H](C)[C@H](NC(=O)[C@H](CCC(=O)O)NC(=O)[C@H](CO)NC(=O)[C@@H](NC(=O)[C@@H](N)CO)C(C)C)C(=O)N[C@@H](CCC(N)=O)C(=O)N[C@@H](CC(C)C)C(=O)N[C@@H](CCSC)C(=O)N[C@@H](Cc1cnc[nH]1)C(=O)N[C@@H](CC(N)=O)C(=O)N[C@@H](CC(C)C)C(=O)NCC(=O)N[C@@H](CCCCN)C(=O)N[C@@H](Cc1cnc[nH]1)C(=O)N[C@@H](CC(C)C)C(=O)N[C@@H](CC(N)=O)C(=O)N[C@@H](CO)C(=O)N[C@@H](CCSC)C(=O)N[C@@H](CCC(=O)O)C(=O)N[C@@H](CCCN=C(N)N)C(=O)N[C@H](C(=O)N[C@@H](CCC(=O)O)C(=O)N[C@@H](Cc1c[nH]c2ccccc12)C(=O)N[C@@H](CC(C)C)C(=O)N[C@@H](CCCN=C(N)N)C(=O)N[C@@H](CCCCN)C(=O)N[C@@H](CCCCN)C(=O)N[C@@H](CC(C)C)C(=O)N[C@@H](CCC(N)=O)C(=O)N[C@@H](CC(=O)O)C(=O)N[C@H](C(=O)N[C@@H](Cc1cnc[nH]1)C(=O)N[C@@H](CC(N)=O)C(=O)N[C@@H](Cc1ccccc1)C(=O)O)C(C)C)C(C)C [hPTH (1-34), teriparatide]
T1/2 (IV half-life) ([1]; intravenous): about 5 minutes

Compound: NC(=O)CC[C@@H]1NC(=O)[C@H](Cc2ccccc2)NC(=O)[C@H](Cc2ccc(O)cc2)NC(=O)CCSSC[C@@H](C(=O)N2CCC[C@H]2C(=O)N[C@H](CCCN=C(N)N)C(=O)NCC(N)=O)NC(=O)[C@H](CC(N)=O)NC1=O [desmopressin]
T1/2 (IV half-life) ([1]; in vivo, iv): 3 to 5 h
